Data as given in patent US20170306042A1, “IMMUNOGENIC MODULATION BY ENDOCRINE DEPRIVATION THERAPY IMPROVES SENSITIVITY OF TUMOR CELLS TO IMMUNE MEDIATED LYSIS” (The United States of America, as represented by the …, priority 2014, published 2017).
Entries after “also recorded” stand apart in the source; their conditions may differ.

How the values were obtained:
[1] = tested on: LNCaP cells; assay: Apoptosis PCR array (96 genes) in LNCaP cells; assay type: cell-based, human
Experimental: The properties of ADT that induce immunogenic modulation and sensitize prostate tumor cells to immune-mediated attack are novel and have not been previously described. It was hypothesized that modulation of apoptotic genes might be part of the mechanism of action of ADT-induced CTL sensitization. […] In particular, gene expression was assessed using an apoptosis PCR array (SA Biosciences, Valencia, Calif.) as per the manufacturer's instructions. RT-PCR was performed on the 7300 Real-Time PCR System (Applied Biosystems, Carlsbad, Calif.). Where indicated, values were calculated as expression relative to GAPDH, as previously described (Ardiani et al., Cancer Res., 74(7): 1945-1957 (2014))

[2] = tested on: TRAMP-C2 mouse prostate carcinomas; conditions: in vitro (Ardiani et al. 2013); cited from earlier work
[3] = tested on: LNCaP cells; assay: CEA-specific CTL lysis assay, LNCaP targets; assay type: cell-based, human; conditions: 10 μM, 48 hours, E:T 30:1, P<0.0001
Text: To evaluate the importance of DAPK1, DAPK1 siRNA was used to reduce the expression of DAPK1.

[4] = tested on: PSA; assay: RT-PCR of PSA mRNA in LNCaP cells; assay type: cell-based, human; conditions: 10 μM, 48 hours, P<0.0001
[5] = tested on: LNCaP/AR(cs) cells; assay: CEA- or PSA-specific CD8+ T-cell killing, LNCaP/AR(cs) targets; assay type: cell-based, human
[6] = tested on: LNCaP cells; assay: MUC1-specific CTL lysis assay, LNCaP targets; assay type: cell-based, human; conditions: 10 μM, 48 hours, E:T 30:1, vs vehicle
Experimental: (§2) At specific time points, cells were harvested and counted. Equal numbers of effector target cells from all treatment were plated with respective cytotoxic T-cells.

[7] = tested on: MDA MB 231 cells; conditions: 10 μM, 48 hours
Experimental: After 48 hours, cells were harvested and stained with the following antibodies: HLA A2-PE-Cy7, MUC-1-FITC, CD54-BV421, CD95-FITC (BD Biosciences, San Jose, Calif.), CEA-APC (Miltenyi Biotec, Auburn, Calif.), TRAIL receptor 1 and TRAIL receptor 2 (R & D Systems, Minneapolis, Minn.). LIVE/DEAD Fixable Violet Dead Cell Stain (Life Technologies, Grand Island, N.Y.) was used to determine cell viability. Cells were incubated with the antibodies for 30 min at 4° C., acquired on a FACS Verse flow cytometer (Becton Dickinson, Franklin Lakes, N.J.), and analyzed using FlowJo software (TreeStar, Inc., Ashland, Oreg.).

[8] = tested on: ZR75-1 (ER+AR+) cells; assay: CEA-specific CTL lysis assay, ZR75-1 targets; assay type: cell-based, human; conditions: 10 μM, E:T 30:1, vs vehicle
Experimental: The HLA-A2-restricted CEA-specific CTL recognizes the CEA peptide epitope […] (SEQ ID NO: 1) (CAP-1). […] The percentage of tumor lysis was calculated as follows: % tumor lysis=[(experimental cpm−spontaneous cpm)/(maximum cpm−spontaneous cpm)]×100.
These cells were then used as target cells for CTL-mediated killing assays utilizing CEA-specific CTLs.

[9] = tested on: LNCaP/AR(cs) cells; assay: Cell proliferation and viability, LNCaP/AR(cs); assay type: cell-based, human
[10] = tested on: castration resistant prostate cancer; conditions: AFFIRM trial (Scher et al. 2012); cited from earlier work
[11] = tested on: ZR75-1 (ER+AR+) cells; assay: Tumor cell proliferation, ZR75-1; assay type: cell-based, human; conditions: 10 μM; 48 or 72 hours; P<0.05 vs vehicle
Experimental: (§1) At the indicated time points, cells were harvested and the number of viable cells was determined by trypan blue exclusion.

[12] = tested on: PC-3 cells; assay: MUC1-specific CTL lysis assay, PC-3 targets; assay type: cell-based, human; conditions: 10 μM, 48 hours, E:T 30:1, vs vehicle
Experimental: as §2

[13] = tested on: murine prostate carcinomas; conditions: cited from earlier work
[14] = tested on: LNCaP AR-shRNA (AR−, HLA-A2) cells; conditions: 10 μM
[15] = tested on: NAIP; assay: NAIP immunohistochemistry in PC-3 xenografts in nude mice; assay type: in vivo; conditions: 10 mg/day, 7 days
Text: To examine the reduced expression of NAIP in vivo, either LNCaP or PC-3 cells were transplanted into […] nude mice (Charles River, Wilmington, Mass.) (s.c. in the right flank with 5×10^6 LNCaP or PC-3 prostate tumor cells). […] After 7 days of treatment, tumors were subjected to immunohistochemistry staining to detect the presence and intensity of NAIP expression. Specifically, NAIP expression was detected via immunohistochemistry using a rabbit polyclonal antibody to NAIP (Novus Bio, Littleton, Colo.) according to the manufacturer's instructions. Entire slides were digitally scanned by an Aperio ScanScope CS system and analyzed by Aperio ImageScope Viewer software (Aperio Technologies Inc., Vista, Calif.). Statistical analysis was performed using 3-7 murine tumors, each prepared as a complete stained tumor section. Positive tumor regions were determined using the Positive Pixel Count v9 algorithm. Negative controls included omission of primary antibody with PBS and matched rabbit isotype antibody. In all cases, necrotic areas of tumor were excluded from analysis.

[16] = tested on: BT549 (ER−AR+) cells; assay: Tumor cell proliferation, BT549; assay type: cell-based, human; conditions: 10 μM; 48 or 72 hours; P<0.01 vs vehicle; to a greater degree than ZR75-1
Experimental: as §1

[17] = apoptosis PCR array, negative = down-regulated

## enzalutamide
[1]; [17]
  CASP1 (Caspase 1) gene expression change: −2.17 fold
  CASP5 gene expression change: −3.50 fold
  CASP8 gene expression change: −2.96 fold
  CD27 gene expression change: −2.26 fold
  DAPK1 gene expression change: −6.53 fold
  HRK gene expression change: −2.86 fold
  NAIP gene expression change: −13.90 fold
  TNFRSF25 (DR3) gene expression change: −3.70 fold
  TNFSF8 gene expression change: −3.50 fold
[1]; rounded from Table 1
  DAPK1 down-regulated: 6.5 fold
  NAIP down-regulated: 14 fold
[2]
  sensitivity to gp70-specific CTL killing: improve tumor cells' sensitivity
[3]
  sensitivity to CEA-specific CD8+ T-cell killing: significantly enhanced the sensitivity
[4]
  reduction in levels of PSA mRNA: 5.5 fold
[5]; 10 μM, CEA- or PSA-specific CD8+ T-cells, P<0.01
  sensitivity to T-cell killing: significantly improved the cells' sensitivity
[5]; 30 μM, P<0.01, no significant difference to 10 μM
  sensitivity to T-cell killing: significantly improved the cells' sensitivity
[6]
  sensitivity to MUC1-specific CTL-mediated lysis: significantly enhanced their sensitivity
[7]; MDA MB 231 (ER−AR−)
  cell-surface markers with increased expression: upregulated CEA, ICAM-1 and Trail receptors 1/2
[7]; MDA MB 231
  CEA mean fluorescence intensity: 626
  CEA percent positivity: 9.7%
  Fas mean fluorescence intensity: 375
  Fas percent positivity: 9.0%
  HLA A2 mean fluorescence intensity: 21175
  HLA A2 percent positivity: 96.4%
  ICAM-1 mean fluorescence intensity: 7254
  ICAM-1 percent positivity: 95.3%
  MUC-1 mean fluorescence intensity: 503
  Trail R1 mean fluorescence intensity: 1125
  Trail R1 percent positivity: 19.2%
  Trail R2 mean fluorescence intensity: 1516
[8]
  sensitivity to CEA-specific CTL-mediated lysis: significantly enhanced their sensitivity
[9]; 10 μM
  proliferation of LNCaP/AR(cs) cells: did not inhibit the proliferation
[9]; 30 μM
  inhibition of growth of LNCaP/AR(cs) cells: 50%
  viability of LNCaP/AR(cs) cells: no effect on the cells' viability
[10]
  advantage in overall survival compared to placebo: 4.8 month
[11]
  proliferation of ZR75-1 cells: significantly inhibited the proliferation
[12]
  sensitivity to MUC1-specific CTL-mediated lysis: neither enzalutamide nor abiraterone improved PC-3 cells' sensitivity; also recorded: did not improve the sensitivity
[13]; Ardiani et al. 2013
  number or function of T-cells: did not alter the number or function of T-cells
[13]; murine prostate carcinomas (Ardiani et al. 2013)
  MHC-I and Fas on the surface of tumor cells: up-regulated MHC-I and Fas
[14]
  growth of LNCaP AR-shRNA: did not affect the growth
[15]
  NAIP expression in PC-3 tumors vs untreated: did not mediate significant changes in NAIP expression
[16]
  proliferation of BT549 cells: significantly inhibited the proliferation
